# Results as given in paper PMC10484922, “Discovery of a selective and biologically active low-molecular weight antagonist of human interleukin-1β” (Nature Communications, 2023).
# Several values for one entry are separate records, joined by “and”; a condition that tells them apart may be missing. Equal entries are not always repeated. Where two headings read alike, the source gives them in different places.
# Tests used:
# [1] = target: T1, IL-1β (Homo sapiens, UniProt P01584); test: SPR binding of compounds to immobilized hIL-1β; design: Mature hIL-1β was expressed in Escherichia coli; made in house; host or cells: Escherichia coli BL21 (DE3), pET17b
# T1 sequence (P01584 117-269): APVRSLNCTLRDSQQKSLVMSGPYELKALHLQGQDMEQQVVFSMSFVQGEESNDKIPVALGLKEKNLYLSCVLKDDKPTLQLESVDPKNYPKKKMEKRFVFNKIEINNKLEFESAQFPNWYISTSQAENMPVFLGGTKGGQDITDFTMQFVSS
# Description: All SPR experiments were performed with an SPR-32 instrument (Bruker Daltonics SPR, Hamburg, Germany). SPR chips were from XanTec bioanalytics GmbH (Düsseldorf, Germany).
# C-terminally avi-tagged hIL-1β protein was immobilized onto a SAHC200M chip with a neutravidin-coated surface. Immobilization was performed with a protein injection of 0.02 mg/ml IL-1β diluted in PBS pH 7.5 (Gibco 70011-036, 10×), 0.05% Tween-20 for 5 min at 10 μl/min. The running buffer for binding studies of compounds was PBS pH 7.4, 0.05% Tween-20, and 2% DMSO. For the correction of small DMSO variations between samples, injections of 6 solvent samples ranging from 1% to 3% DMSO were run. Compound measurements were performed in MICK mode (multiple injection cycles kinetic) with a dose–response of 10 concentrations. Dissociation constants for compounds (KD) were obtained by determining steady-state fit that followed the 1:1 Langmuir model.
# Data analysis was performed with the Sierra Analyzer 3.4.0 software from Bruker. Signal intensities were corrected for nonspecific binding to the surface by subtracting intensities from the reference surface from those of the hIL-1β surfaces (first reference subtraction) and by subtracting the buffer injection (second reference subtraction). KD values were carried out by determining a reporting point close to the end of the injection, used for steady-state fit, in addition to a kinetic fit delivering kon- and koff-values; both fitting models followed the 1:1 Langmuir equation.
# Supplementary Figure 3. De termination of binding af fi nit ie s for se l ec ted ana l ogues of 1 by SPR. a - d Gr ap hs of exemplary experimen ts are given , where the sat urat ion of hI L-1b immobil ized on a chip was monitored at various concentrations of compound 3, 12, 10, and 11, respectively. Th e saturati on reached at equ ilibri um (insert) was plo tt ed versus the admini stered concentration and the equ ilibri um bin ding constant was derived from a non-li near lea st square fitting routine. e equ ilibri um and f kinetic bin ding of (S)-2 to IL-1b (kon = 1. 15 x 105 M-1 s-1 and koff = 0. 12 s-1).
# [2] = target: T1, IL-1β; test: protein-observed 1H-13C-HMQC NMR binding (I/Io of Leu60 Cδ1H3); design: Mature hIL-1β was expressed in Escherichia coli; made in house; host or cells: Escherichia coli BL21 (DE3), pET17b; details: for I/Io (ratio of peak intensities of Leu60 Cδ1H3 in 1H-13C-HMQC spectra in presence and absence of ligand): hIL-1β 50 µM, 500 µM compound; for NMR I/Io values, Mean / NMR I/Io values, individual experiments (Exp1-2): source data
# Description: ^1H–^13C- and ^1H–^15N-HMQC spectra were recorded on Bruker AVANCE 600 MHz and 800 MHz spectrometers equipped with TXI-cryocooled probeheads. In ligand binding experiments, protein concentrations were typically 50 μM in PBS, pH 7.4. Backbone assignments of hIL-1β in the ligand-bound state and unliganded state were obtained by a combination of a 3D triple resonance experiment HNCACB and a ^15N-edited NOESY spectrum, which were processed using TOPSPIN 3.2 and analyzed using CcpNmr AnalysisAssign 3.1.0[46]. ^15N-CEST experiments were run at weak B1 radiofrequency fields of 25 and 12.5 Hz on a Bruker AVANCE 800 MHz spectrometer with 113 increments and a total sweep width of 28 ppm in the pseudo-3D dimension. Peak intensities were extracted by fitting pseudo-Voigt lineshape models using peakipy (https://github.com/j-brady/peakipy). Fitted peak intensities were subsequently used to generate CEST profiles, and exchange parameters were fitted using ChemEx (https://github.com/gbouvignies/ChemEx).
# Supplementary Figure 2. 13C-NMR and 19F-NMR reporter assays to monitor early
# 13C-HMQC spectra of hIL-1b (50 µM) were acquired in the presence (red) and absence (blue) of 500
# µM compound and rows were extracted at the w1-frequency of the peak corresponding to Leu60 […]
# [3] = target: T1, IL-1β; test: 19F-reporter displacement assay with (S)-1 as probe; type: binding; design: Mature hIL-1β was expressed in Escherichia coli; made in house; host or cells: Escherichia coli BL21 (DE3), pET17b
# Description: Protein and reporter concentrations were 10 and 40 μM, respectively. To account for changes in sample homogeneity, samples contained 1-(2,2,2-trifluoroacetyl)piperidine-4-carboxylic acid as an internal reference for scaling signal intensities. Three concentrations of the competitor were typically measured, and the related displacement of the probe was converted into Ki-values according to Dalvit and Vulpetti[17]. […] This process was automated with FRPipe, an in-house developed Python script (https://github.com/Novartis/FRPipe) that allows for streamlined analysis of such experiments. […] For visual inspection, an overview containing relevant ^19F peaks, fitting curves, and proton spectra was plotted.
# Supplementary Figure 2. 13C-NMR and 19F-NMR reporter assays to monitor early structure activity relationships of analogues of 1. a, b Early structure activity relationships monitored by protein-observed and c-f 19F-NMR reporter assays, exemplified for compound 8. a 1H-13C-HMQC spectra of hIL-1b (50 µM) were acquired in the presence (red) and absence (blue) of 500 µM compound and rows were extracted at the w1-frequency of the peak corresponding to Leu60 Cd1H3. b The degree of protein binding was estimated from the ratio I/I0, where I and I0 correspond to the signal in the presence and absence of compound, respectively. c For the assessment of the KI-values, the signal intensity of a reporter molecule (S)-1 was monitored in 19F-transverse relaxation experiments run in the absence and presence of increasing amounts of compound. d All intensities were scaled to the intensity of an internal standard (all signals in panel c and d are shifted on the X-axis for clarity). e KI-values were retrieved from theoretical binding curves calculated for each compound concentration8. f One-dimensional 1H-NMR spectra were recorded for each assay mixture to assess the structural integrity and solubility of the compound in the sample.
# (1 picture or pasted object on this page, not shown here)
# [4] = target: T1, IL-1β; test: TR-FRET IL-1β/hIL-1R1 receptor displacement assay; type: biochemical; details: read-out: TR-FRET IL-1β IC50
# Description: After 1 h incubation at room temperature, hIL-1R1 (1–332; Alexa 647 labeled; 50 nM final concentration) and anti-His-Europium W1024 (Perkin Elmer; Cat.No. AD0401, 1 nM final concentration) were added to a final volume of 10 μl per well. […] All experiments were run in triplicates.
# [5] = target: T2, IL-1α (Homo sapiens, UniProt P01583); test: TR-FRET IL-1α/hIL-1R1 receptor displacement assay; type: biochemical; details: read-out: TR-FRET IL-1α IC50
# T2 sequence (P01583 113-271): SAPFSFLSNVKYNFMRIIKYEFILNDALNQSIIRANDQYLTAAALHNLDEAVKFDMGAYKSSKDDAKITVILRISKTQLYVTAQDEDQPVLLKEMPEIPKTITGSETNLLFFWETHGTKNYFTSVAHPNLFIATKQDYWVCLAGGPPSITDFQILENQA
# Description: After 1 h incubation at room temperature, hIL-1R1 (1–332; Alexa 647 labeled; 50 nM final concentration) and anti-His-Europium W1024 (Perkin Elmer; Cat.No. AD0401, 1 nM final concentration) were added to a final volume of 10 μl per well. After 1 h of incubation at room temperature, time-resolved fluorescence was measured at λexc = 320 ± 20 nm, λem = 620 ± 25 nm/665 ± 25 nm using a Pherastar FSX plate reader. All experiments were run in triplicates. The data provided a typical saturation-binding curve, and the IC50 values were calculated by fitting the results to the Hill equation using Prism 7.0 and the in-house software Helios.
# [6] = source data, read-out: SPR Kd, Mean
# [7] = source data, read-out: SPR Kd, individual experiments (Exp1-5)
# [8] = steady-state fit, 1:1 Langmuir, read-out: SPR KD
# [9] = 19F-reporter Ki, protein 10 μM, reporter (S)-1 40 μM
# [10] = 19F-reporter, individual experiments (Exp1-58), source data
SMILES,"Kd [1, 6] [µM]","Kd [1, 7]","Kd [1, 8] [µM]",I/Io (ratio of peak intensities of Leu60 Cδ1H3 in 1H-13C-HMQC spectra in presence and absence of ligand) [2],"NMR I/Io values, Mean [2]","NMR I/Io values, individual experiments (Exp1-2) [2]","Ki [3, 9] [µM]","Ki [3, 10]",IC50 [4] [µM],IC50 [5] [µM],binding to hIL-1β by protein-observed NMR [2],"Ki ([3]; protein 10 μM, reporter (S)-1 40 μM, read-out: 19F-reporter Ki) [µM]","Ki ([3]; source data, read-out: 19F-reporter, individual experiments (Exp1-58))"
Cc1ccc2c(c1)NC(=O)C2(O)c1cc(C(C)C)ccc1O (stereo not shown) [Compound 3],173,174 µM and 171 µM,172 ± 2,0.19 ± 0.03 (N = 2),0.19,0.17 and 0.21,151 ± 78,206 µM and 96 µM,> 400,–,–,–,–
Cc1ccc2c(c1)NC(=O)C2(O)c1cc(Cl)ccc1O (stereo not shown) [Compound 8],–,312 µM (2×) and 158 µM,261 ± 89,0.18 ± 0.004 (N = 2),0.18,0.18,312 ± 124,110 µM and 195 µM and 206 µM and 210 µM and 215 µM and 223 µM and 233 µM and 254 µM (2×) and 260 µM (2×) and 120 µM and 261 µM and 262 µM and 268 µM and 278 µM and 281 µM and 282 µM and 283 µM and 287 µM and 292 µM and 293 µM and 133 µM and 295 µM and 309 µM and 317 µM and 325 µM and 331 µM (3×) and 337 µM and 338 µM and 340 µM and 162 µM and 345 µM and 362 µM and 382 µM and 387 µM and 393 µM and 395 µM and 399 µM and 427 µM and 439 µM (2×) and 164 µM and 454 µM and 456 µM and 471 µM and 475 µM and 580 µM and 600 µM and 622 µM (2×) and 86 µM and 183 µM (2×) and 184 µM (2×),> 200,> 200,–,–,–
O=C1Nc2cc(C(F)(F)F)ccc2[C@]1(O)c1cc(Cl)ccc1O [Compound (S)-1],–,–,–,–,–,–,–,–,–,> 200,–,–,–
O=C1Nc2cc(C(F)(F)F)ccc2C1(O)c1cc(Cl)ccc1O (stereo not shown) [Compound 1],–,–,–,–,–,0.39 and 0.31,–,–,–,> 200,validated as a binder by 2D NMR,–,–
Cc1ccc(O)c(C2(O)C(=O)Nc3cc(C(F)(F)F)ccc32)c1 (stereo not shown) [Compound 13],–,–,> 1000,0.4 (N = 1),–,–,–,–,–,–,–,–,–
O=C1Nc2ccccc2C1(O)c1cc(Cl)ccc1O (stereo not shown) [Compound 6],–,–,–,0.59 ± 0.03 (N = 2),0.59,0.57 and 0.61,> 1000,–,> 500,–,decreases protein binding,–,–
Cc1ccc2c(c1)N(C)C(=O)C2(O)c1cc(C(C)C)ccc1O (stereo not shown) [Compound 4],–,–,–,0.98 ± 0.06 (N = 2),0.98,0.94 and 1.02,> 1000,–,> 500,–,lack of binding,–,–
COc1ccc(Cl)cc1C1(O)C(=O)Nc2cc(C(F)(F)F)ccc21 (stereo not shown) [Compound 5],–,–,–,0.99 ± 0.06 (N = 2),0.99,0.95 and 1.03,> 1000,–,> 530,–,lack of binding,–,–
O=C1Nc2cc(Cl)ccc2C1(O)c1cc(Cl)ccc1O (stereo not shown) [Compound 9],–,–,–,0.3 (N = 1),–,–,172 ± 35,197 µM and 147 µM,–,–,–,–,–
O=C1Nc2cc(C(F)(F)F)ccc2C1(O)c1ccccc1O (stereo not shown) [Compound 7],–,–,–,0.45 ± 0.05 (N = 2),–,0.41 and 0.48,> 1000,–,> 500,–,decreases protein binding,–,–
Cc1ccc(O)c(C2(c3cn[nH]c3)C(=O)Nc3cc(C(F)(F)F)ccc32)c1 (stereo not shown) [Compound 12],138,145 µM and 130 µM,138 ± 11,<0.1 (N = 1),–,–,–,–,> 200,> 200,–,90 ± 41,119 µM and 61 µM
